This assay has as its system Oryctolagus cuniculus. Kind of assay: In vivo activity using McPhail test after oral dose. The assay is classed as functional.
In the case of `C#C[C@]1(O)CCC2C3CCC4=CC(=O)CCC4C3[C@H]3C[C@@H](C)[C@]21C3` (stereo partly drawn), the ED2 is 0.125 mg/kg. The same measure for `C#C[C@]1(O)CCC2C3CCC4=CC(=O)CCC4C3[C@H]3CC(=C)[C@]21C3` (stereo partly drawn): 1 mg/kg; for `C#C[C@]1(O)CCC2C3CCC4=CC(=O)CCC4C3C(=C)CC21CC` (stereo partly drawn): 0.015 mg/kg; for `C#C[C@]1(O)CCC2C3CCC4=CC(=O)CCC4C3CCC21CC` (stereo partly drawn): 0.04 mg/kg.

With `C#C[C@]1(O)C=CC2C3CCC4=CC(=O)CCC4C3CCC21CC` (stereo partly drawn), the ED2 turned out to be 0.008 mg/kg.

`C1=C2CC3(CCC2C2C(C1)C1CCC4(OCCO4)[C@@]14C[C@@H]2C[C@]41CO1)OCCO3` (stereo partly drawn) came in with an ED2 of more than 4 mg/kg. The same measure for `C#C[C@]1(O)CCC2C3CCC4=CC(=O)CCC4C3[C@H]3C[C@H](C)[C@]21C3` (stereo partly drawn): approximately 0.032 mg/kg; for `C#C[C@]1(O)CC[C@H]2[C@@H]3CCC4=CC(=O)CC[C@@H]4[C@H]3CC[C@@]21C` [NORETHINDRONE]: approximately 0.5 mg/kg.
